What was measured:
SK-OV-3 MDR-1/M-6-6 [1] = assay: cells; settings: Homo sapiens, SKOV3-MDR1-M6/6, read-out: Antiproliferative activity IC50, SK-OV-3 MDR-1/M-6-6
MDA-MB-435 = assay: Breast cancer/endothelial cell IC50, MDA-MB-435; type: cell-based; settings: Homo sapiens, MDA-MB-435, read-out: IC50, MDA-MB-435
MDA-MB-231 = assay: Breast cancer/endothelial cell IC50, MDA-MB-231; type: cell-based; settings: Homo sapiens, MDA-MB-231, read-out: IC50, MDA-MB-231
MCF-7 = assay: Breast cancer/endothelial cell IC50, MCF-7; type: cell-based; settings: Homo sapiens, MCF7, read-out: IC50, MCF-7
4T-1 = assay: Breast cancer/endothelial cell IC50, 4T-1; type: cell-based, murine; settings: Mus musculus, 4T1, read-out: IC50, 4T-1
HUVEC endothelial cells = assay: Breast cancer/endothelial cell IC50, HUVEC; type: cell-based; settings: Homo sapiens, read-out: IC50, HUVEC
HeLa cells = assay: Cell cycle analysis by flow cytometry; type: cell-based; settings: 40 and 50 nM 11, 75 and 100 nM 21, 18 h
MDA-MB-435 cells = assay: Apoptosis detection, Western blot of cleaved PARP; type: cell-based, human
[2] = molecular target: purified porcine brain tubulin (Sus scrofa, UniProt P02554); assay: In vitro tubulin polymerization; settings: 10 μM compound
[3] = tested on: cellular microtubules in A-10 cells; assay: Loss of cellular microtubules, indirect immunofluorescence in A-10 cells; type: cell-based
[4] = tested on: MDA-MB-435 flank xenograft; assay: MDA-MB-435 flank xenograft model; type: in vivo, NCr athymic nu/nu mice; settings: vs carrier treated mice
4T1 orthotopic allograft = assay: 4T1 triple negative breast orthotopic allograft model; settings: 4T1 orthotopic model
SK-OV-3 MDR-1/M-6-6 [5] = settings: other colchicine site agents; cited from earlier work

Sequence of purified porcine brain tubulin (P02554 whole entry): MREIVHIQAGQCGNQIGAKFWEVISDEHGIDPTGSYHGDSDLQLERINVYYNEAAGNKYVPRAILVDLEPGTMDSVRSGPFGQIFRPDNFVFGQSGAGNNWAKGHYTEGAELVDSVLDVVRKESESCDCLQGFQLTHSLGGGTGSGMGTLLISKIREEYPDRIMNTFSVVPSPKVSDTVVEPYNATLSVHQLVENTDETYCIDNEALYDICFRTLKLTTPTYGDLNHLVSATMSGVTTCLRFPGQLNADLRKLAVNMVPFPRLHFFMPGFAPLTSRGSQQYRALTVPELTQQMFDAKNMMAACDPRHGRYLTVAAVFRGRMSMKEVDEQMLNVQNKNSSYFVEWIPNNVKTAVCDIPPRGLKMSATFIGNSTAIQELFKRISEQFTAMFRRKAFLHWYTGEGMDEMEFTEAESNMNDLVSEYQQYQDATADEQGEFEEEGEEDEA
Sequence of purified porcine brain tubulin (P02550 whole entry, further chain): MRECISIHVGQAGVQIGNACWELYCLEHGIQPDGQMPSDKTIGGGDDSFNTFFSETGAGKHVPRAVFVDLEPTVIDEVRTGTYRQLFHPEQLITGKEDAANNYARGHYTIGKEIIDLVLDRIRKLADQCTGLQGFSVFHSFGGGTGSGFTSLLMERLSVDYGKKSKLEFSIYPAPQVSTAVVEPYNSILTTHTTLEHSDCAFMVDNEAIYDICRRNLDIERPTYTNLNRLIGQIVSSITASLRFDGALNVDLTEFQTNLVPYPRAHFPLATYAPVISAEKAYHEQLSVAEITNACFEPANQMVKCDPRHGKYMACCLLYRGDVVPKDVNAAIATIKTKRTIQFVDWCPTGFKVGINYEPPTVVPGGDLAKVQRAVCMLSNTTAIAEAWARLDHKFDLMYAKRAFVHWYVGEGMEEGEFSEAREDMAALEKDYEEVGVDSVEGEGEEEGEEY

CCCCN(c1ccc(OC)cc1)c1nc(C)nc2oc(C)cc12 [Compound 14, N-butyl-N-(4-methoxyphenyl)-2,6-dimethylfuro[2,3-d]pyrimidin-4-amine]
IC50 (SK-OV-3 MDR-1/M-6-6 [1]): > 10 µM

COc1ccc(/C=C\c2cc(OC)c(OC)c(OC)c2)cc1O [CA-4, combretastatin A-4]
IC50 (MDA-MB-435): 0.0522 µM
IC50 (MDA-MB-231): 0.228 ± 0.0029 µM
IC50 (MCF-7): 0.0249 ± 0.0014 µM
IC50 (4T-1): 0.0696 ± 0.008 µM
IC50 (HUVEC endothelial cells): 0.0177 ± 0.0036 µM

COc1ccc(N(C)c2nc(C)nc3oc(C)cc23)cc1 [Compound 11, N-(4-methoxyphenyl)-N,2,6-trimethylfuro[2,3-d]pyrimidin-4-amine]
effect on cell cycle distribution (G2/M) (HeLa cells): initiated mitotic accumulation
cleaved PARP level (MDA-MB-435 cells; 75 nM 11, 18 h): slight increase in cleaved PARP
cleaved PARP level (MDA-MB-435 cells; 36 h, 75 nM 11, 120 nM 21): much higher levels of cleaved PARP
inhibition of polymerization of purified tubulin [2]: almost completely inhibited the polymerization of tubulin

COc1ccc(Nc2nc(C)nc3oc(C)cc23)cc1 [Compound 10, N-(4-methoxyphenyl)-2,6-dimethylfuro[2,3-d]pyrimidin-4-amine]
effect on cellular microtubules [3]: inactive

COc1ccc(N(C)c2nc(C)nc3oc(C)cc23)cc1.Cl [Compound 21, N-(4-methoxyphenyl)-N,2,6-trimethylfuro[2,3-d]pyrimidin-4-amine hydrochloride]
effect on cellular microtubules [3]: dose-dependent loss of cellular microtubules
EC50 ([3]; read-out: EC50 for microtubule depolymerization, 18 h, 50% loss of cellular microtubules): 0.57 µM
effect on cell cycle distribution (G2/M) (HeLa cells): initiated dose-dependent mitotic accumulation
tumor vascular density (CD31/PECAM-1 staining) [4]: decreased tumor vascular density
animal weight loss (4T1 orthotopic allograft): less weight loss than docetaxel
primary tumor growth (4T1 orthotopic allograft; 21 twice weekly at MTD): as active as docetaxel at reducing primary tumor growth
lung metastases (4T1 orthotopic allograft; compared to docetaxel): reduced the size (Figure 9D; metastases at arrows) but not the number
inhibition of polymerization of purified tubulin [2]: almost completely inhibited the polymerization of tubulin

COc1cc2c(cc1O)CC[C@@H]1[C@@H]2CC[C@]2(C)[C@@H](O)CC[C@@H]12 [2-methoxyestradiol]
Rr (relative resistance), Pgp-expressing SK-OV-3 pair (SK-OV-3 MDR-1/M-6-6 [5]): 1.5–2.6

From publication PMC4089508 (Bioorganic & medicinal chemistry, 2014)
